What was measured:
Test in all cases: relative viability (nuclei count vs DMSO), 5 days (fraction); higher = more cells survive
[1] = compound: C#Cc1cccc(Nc2ncnc3cc(OC)c(OCCCCCCC(=O)NO)cc23)c1 [CUDC-101] + CC(=O)c1c(C)c2cnc(Nc3ccc(N4CCNCC4)cn3)nc2n(C2CCCC2)c1=O [Palbociclib] (partner 0.5 µM)
Summary of the method: (§1)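 Lung cancer cell lines were pin-tool dosed in 1536-well plates on the day after seeding, with either a lone drug or a fixed anchor-drug dose plus five library-drug doses (not always all listed) in √10 steps. Nuclei were counted on 4× images after 5 days. Relative viability is the ratio of treated-well to vehicle-well nuclei counts, with each value a median of duplicate plates.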

[2] = compound: COc1cc2/c(=N/c3ccc(Br)cc3F)nc[nH]c2cc1OCC1CCN(C)CC1 [Vandetanib] + Cc1cc(Nc2cc(N3CCN(C)CC3)nc(Sc3ccc(NC(=O)C4CC4)cc3)n2)n[nH]1 [Tozasertib] (partner 0.1 µM)
Summary of the method: as §1

[3] = compound: COc1cc2/c(=N/c3ccc(Br)cc3F)nc[nH]c2cc1OCC1CCN(C)CC1 [Vandetanib] + COc1cc2c(Oc3ccc(NC(=O)C4(C(=O)Nc5ccc(F)cc5)CC4)cc3F)ccnc2cc1OCCCN1CCOCC1 [Foretinib] (partner 0.25 µM)
Summary of the method: as §1

[4] = compound: COc1cc2/c(=N/c3ccc(Br)cc3F)nc[nH]c2cc1OCC1CCN(C)CC1 [Vandetanib] + CS(=O)(=O)N1CCN(Cc2cc3nc(-c4cccc5[nH]ncc45)nc(N4CCOCC4)c3s2)CC1 [Pictilisib] (partner 1 µM)
Summary of the method: as §1

| Cell Line | relative viability ([1]; first compound 0.01 µM) | relative viability ([1]; first compound 0.03162 µM) | relative viability ([1]; first compound 0.1 µM) | relative viability ([1]; first compound 0.3162 µM) | relative viability ([1]; first compound 1 µM) | relative viability ([2]; first compound 0.02 µM) | relative viability ([2]; first compound 0.06325 µM) | relative viability ([2]; first compound 0.2 µM) | relative viability ([2]; first compound 0.6325 µM) | relative viability ([2]; first compound 2 µM) | relative viability ([3]; first compound 0.02 µM) | relative viability ([3]; first compound 0.06325 µM) | relative viability ([3]; first compound 0.2 µM) | relative viability ([3]; first compound 0.6325 µM) | relative viability ([3]; first compound 2 µM) | relative viability ([4]; first compound 0.02 µM) | relative viability ([4]; first compound 0.06325 µM) | relative viability ([4]; first compound 0.2 µM) | relative viability ([4]; first compound 0.6325 µM) | relative viability ([4]; first compound 2 µM) |
| --- | --- | --- | --- | --- | --- | --- | --- | --- | --- | --- | --- | --- | --- | --- | --- | --- | --- | --- | --- | --- |
| LU99A | 0.332 | 0.391 | 0.374 | 0.425 | 0.212 | 0.253 | 0.33 | 0.251 | 0.261 | 0.3 | 0.842 | 0.757 | 0.878 | 0.783 | 0.823 | 0.304 | 0.327 | 0.336 | 0.29 | 0.306 |
| LXF-289 | 0.6 | 0.604 | 0.571 | 0.589 | 0.515 | 0.242 | 0.241 | 0.215 | 0.176 | 0.193 | 1.01 | 0.954 | 0.978 | 0.968 | 0.937 | 0.828 | 0.771 | 0.773 | 0.792 | 0.798 |
| NCI-H23 | 0.463 | 0.562 | 0.563 | 0.535 | 0.446 | 0.307 | 0.41 | 0.144 | 0.382 | 0.327 | 0.917 | 1 | 0.304 | 0.947 | 0.898 | 0.423 | 0.427 | 0.509 | 0.424 | 0.506 |
| NCI-H322M | 0.515 | 0.47 | 0.465 | 0.497 | 0.436 | 0.52 | 0.454 | 0.521 | 0.465 | 0.291 | 0.983 | 0.889 | 0.959 | 0.841 | 0.674 | 0.397 | 0.517 | 0.498 | 0.459 | 0.351 |
| NCI-H358 | 0.148 | 0.152 | 0.141 | 0.137 | 0.119 | 0.111 | 0.106 | 0.104 | 0.0913 | 0.102 | 0.657 | 0.716 | 0.649 | 0.646 | 0.332 | 0.285 | 0.328 | 0.331 | 0.316 | 0.241 |
| NCI-H441 | 0.222 | 0.255 | 0.183 | 0.231 | 0.221 | 0.744 | 0.668 | 0.283 | 0.853 | 0.768 | 1.05 | 0.816 | 0.264 | 0.978 | 1.01 | 0.333 | 0.49 | 0.425 | 0.527 | 0.452 |
| NCI-H460 | 0.277 | 0.223 | 0.135 | 0.149 | 0.0952 | 0.399 | 0.432 | 0.371 | 0.391 | 0.457 | 0.934 | 0.992 | 0.952 | 0.953 | 0.997 | 0.351 | 0.359 | 0.349 | 0.371 | 0.331 |
| NCI-H520 | 0.227 | 0.199 | 0.277 | 0.32 | 0.225 | 0.437 | 0.414 | 0.482 | 0.432 | 0.501 | 0.623 | 0.682 | 0.194 | 0.754 | 0.806 | 0.289 | 0.258 | 0.245 | 0.345 | 0.263 |
| NCI-H647 | 0.417 | 0.345 | 0.383 | 0.386 | 0.253 | 0.265 | 0.2 | 0.141 | 0.221 | 0.255 | 1.17 | 1.2 | 0.259 | 1.35 | 1.21 | 0.457 | 0.419 | 0.349 | 0.412 | 0.161 |
| NCI-H650 | 0.402 | 0.365 | 0.302 | 0.374 | 0.29 | 0.732 | 0.69 |  | 0.809 | 0.723 | 1.04 | 1.03 |  | 1.02 | 0.98 | 0.809 | 0.849 | 0.884 | 0.908 | 0.811 |
| NCI-H661 | 0.382 | 0.381 | 0.388 | 0.416 | 0.287 | 0.345 | 0.345 | 0.315 | 0.364 | 0.368 | 0.972 | 0.997 | 0.999 | 1.07 | 0.847 | 0.381 |  | 0.373 | 0.382 | 0.347 |
| NCI-H727 | 0.642 | 0.61 | 0.563 | 0.714 | 0.57 | 0.689 | 0.498 | 0.504 | 0.529 | 0.488 | 0.973 | 0.831 | 0.539 | 1.18 | 0.674 | 0.33 | 0.272 | 0.341 | 0.325 | 0.309 |
| NCI-H838 | 0.213 | 0.221 | 0.233 | 0.26 | 0.214 | 0.264 | 0.273 | 0.193 | 0.253 | 0.229 | 1.08 | 1.01 | 0.282 | 1.06 | 1.05 | 0.461 | 0.357 | 0.457 | 0.426 | 0.415 |
| NCI-H1355 | 0.392 | 0.429 | 0.399 | 0.376 | 0.37 | 0.614 | 0.519 | 0.562 | 0.494 | 0.516 | 0.94 | 0.981 | 1 | 0.936 | 0.946 | 0.438 | 0.367 | 0.425 | 0.496 | 0.482 |
| NCI-H1395 | 0.599 | 0.632 | 0.595 | 0.725 | 0.578 | 0.752 | 0.753 | 0.845 | 0.837 | 0.723 | 0.969 | 1.02 | 1.02 | 0.972 | 0.998 | 0.687 | 0.61 | 0.656 | 0.697 | 0.418 |

From the supplement of paper PMC10307832
